Test results published in patent US4043994A, “New pentapeptides and methods for their production” (Parke, Davis & Company, priority 1976, dated 1977).
“And” between values parts separate entries of the source, which are not always exact repeats. Equal values may be shown once. Ends that are not written are not given here.

Test system: LRF (luteinizing hormone release factor) induced luteinizing hormone (LH) release
Assay: In vitro LRF antagonist test in rat anterior pituitary cell cultures
Assay type: cell-based
Settings: for LH Value: culture medium
Description: Pentapeptides of this invention were screened for LRF antagonist activity in vitro using rat anterior pituitary cell cultures as described by Vale et. al. [Endocrinology, 91, 562 (1972)]. The inhibition of LRF (luteinizing hormone release factor) induced luteinizing hormone (LH) release into the culture medium is the endpoint in this in vitro bioassay.

[1] = compound 1×10^-6 molar, LRF 2.5×10^-10 molar
[2] = compound 1×10^-6 molar, LRF 5×10^-10 molar
[3] = compound 5×10^-6 molar, LRF 5×10^-10 molar

Compound	% LH Release Inhibition [1] [%]	LH Value [1] [ng/mL]	% LH Release Inhibition [2] [%]	LH Value [2] [ng/mL]	% LH Release Inhibition [3] [%]	LH Value [3] [ng/mL]	LH Value (LRF alone 2.5×10^-10 molar)	LH Value (LRF alone 2.5×10^-10 molar, listed as LRF control) [ng/mL]	LH Value (LRF alone 5×10^-10 molar) [ng/mL]
N^α -t-Butoxycarbonyl-N^im -benzyl-L-histidyl-O-benzyl-L-seryl-O-benzyl-L-tyrosyl-D-alanyl-L-leucine methyl ester	72	20.26	–	–	–	–	–	–	–
CCNC(=O)C1CCCN1C(=O)[C@@H](C)NC(=O)[C@H](Cc1ccc(OCc2ccccc2)cc1)NC(=O)[C@H](COCc1ccccc1)NC(=O)[C@@H](Cc1c[nH]c2ccccc12)NC(=O)OC(C)(C)C (mixture of isomers) [N^α -t-Butoxycarbonyl-D-tryptophyl-O-benzyl-L-seryl-O-benzyl-L-tyrosyl-D-alanyl-DL-proline N-ethylamide]	84	10.61	43	34.51	90	14.02	–	–	–
N^α -t-Butoxycarbonyl-N^im -benzyl-L-histidyl-O-benzyl-L-seryl-O-benzyl-L-tyrosyl-D-alanyl-L-leucyl hydrazide	71	19.35	–	–	–	–	–	–	–
LRF Control: luteinizing hormone releasing factor, also referred to as luteinizing hormone releasing hormone, or LH-RH; the stimulus in the assay (QHWSYGLRPG; ends and bridges not checked; UniProt P01148 24-33, looked up) [reference compound]	–	–	–	–	–	–	49.90 ng/mL and 28.52 ng/mL	51.62	52.93
